Test results: PMC10119930, “Dual Molecules Targeting 5-HT6 and GABA-A Receptors as a New Approach to Combat Depression Associated with Neuroinflammation” (ACS Chemical Neuroscience, 2023)

Assays:
[1] = Plasma stability assay; format: in vitro ADME, rat
Protocol: The quantitative HPLC analyses were acquired using Waters Alliance e2695 separations module (Waters, Milford, CT, USA) containing 2998 photodiode array (PDA), a detector (Waters, Milford, CT, USA), and the SpeedROD RP-18e 50–4.6 mm column (Merck, KGaA, Darmstadt, Germany). The temperature of the column was preserved at 30 °C. […] Each sample was injected at a volume of 10 μL in triplicate. […] The stock solutions were mixed with methanol and diluted, resulting in various solutions with concentrations ranging from 1.0 to 0.125 μg/mL. These solutions were then utilized to generate calibration curves by plotting AUC versus concentration in μg/mL. The examined molecules (2 mg) were dissolved in 1 mL of Dulbecco’s phosphate buffered saline (DPBS). The mixture was then continuously agitated at 22 °C for 24 h using a thermoshaker. Following this period, the mixtures were filtered through a cellulose acetate syringe filter (with a pore size of 0.22 μm), moved to a chromatographic vial, and analyzed. To quantify the investigated compounds, the areas beneath their respective peaks on DAD chromatograms were employed. Solubility was calculated using the calibration curves. Chemical stability assay: Stock solution of 16 in DMSO (10 mg/mL) was used. Next, 25 μL of stock solution was mixed with 975 μL of PBS (Dulbecco’s phosphate-buffered saline, Sigma, Poland). […] HPLC analyses were used to quantify the percentage of molecules that remained at each time point relative to the 0 min time point. Brain tissue stability assay: […] Then, 50 μL of the stock solution was combined with 50 μL of ice-cold 50 mM Tris-HCl buffer (pH 7.4) and 150 μL of brain homogenate (suspended in 20 volumes of 50 mM Tris-HCl buffer, ice cold, pH 7.4). The mix was then incubated at 37 °C and quenched at several time points. To terminate the reaction mixture, 250 μL of the appropriate reaction mixture was mixed with 1000 μL of MeCM in the Eppendorf Tube. Following 10 min of shaking (1500 rpm), samples were centrifuged (10 000 rpm, 10 min, 4 °C) and the acquired supernatant was collected. Before conducting HPLC analysis, the supernatant was filtered via a cellulose acetate syringe filter with a pore size of 0.45 μm and then transferred to a chromatographic vial. HPLC analysis was used to determine the percentage of the tested molecule remaining at each time point, relative to the 0 min time point. Plasma stability assay was performed as described previously.[45] Frozen rat plasma (Wistar) was thawed. […] The samples were collected at relative time points. The reaction was terminated by adding 1200 of μL acetonitrile/methanol mixture (50:50, v/v). The samples were centrifuge at 25 000 rpm for 10 min. HPLC analysis was used to determine the percentage of the tested molecule remaining at each time point relative to the 0 min time point. All the experiments were performed in duplicate.

[2] = system: BV-2 microglia cells; assay: Evaluation of microglia morphology by fluorescence microscopy (MitoTracker) after LPS; format: cell-based, mouse; conditions: 10 μM pretreatment 1 h, LPS 18 h
[3] = Parallel artificial membrane permeability assay (PAMPA); format: in vitro ADME; conditions: tested at 10^–5 M, PAMPA Plate System Gentest
Protocol: To estimate the passive transport through cell membranes, we used specialized PAMPA Plate System Gentest acquired from Corning (Tewksbury, MA, USA). The assay was performed as described in the manufacturer’s protocol. The quantitative measurements of tested molecules in apical and basolateral wells were conducted using LC/MS (Waters ACQUITY TQD system with the TQ detector, Milford, USA) and a specific internal standard. The Pe permeability coefficient was calculated rendering the formulas described previously[47],[47] and compared to the reference compound sulpiride.

## Cc1c(OCc2ccccc2)cccc1N1CCN(CCOC(=O)CCCN)CC1.Cl.Cl [Compound 16, 1-(2-((4-Ammoniobutanoyl)oxy)ethyl)-4-(3-(benzyloxy)-2-methylphenyl)piperazin-1-ium Dichloride]
[1]; 0 min
  % compound remaining (rat plasma, 37 °C): 100 ± 0.1%
[1]; 15 min
  % compound remaining (rat plasma, 37 °C): 97.21 ± 0.8%
[1]; 30 min
  % compound remaining (rat plasma, 37 °C): 90.35 ± 1.4%
[1]; 60 min
  % compound remaining (rat plasma, 37 °C): 79.65 ± 2.5%
[1]; 120 min
  % compound remaining (rat plasma, 37 °C): 45.37 ± 2.2%
[1]; 240 min
  % compound remaining (rat plasma, 37 °C): 21.46 ± 1.2%
[2]
  mitochondrial membrane potential / morphology of microglia exposed to LPS: protected the microglia from LPS insult
[3]
  Papp: 6.24 ×10⁻⁶ cm/s
